{
  "source": "ChEMBL document CHEMBL4422633",
  "about": "“Antioxidant-Inspired Drug Discovery: Antitumor Metabolite Is Formed in Situ from a Hydroxycinnamic Acid Derivative upon Free-Radical Scavenging” (J Med Chem, 2019)",
  "key": {"[1]": {"assay": "Cytotoxicity against mouse L5178 cells assessed as reduction in cell viability after 72 hrs by MTT assay", "assay_type": "functional, cell-based", "conditions": "L5178, 72 h"}, "[2]": {"assay": "Cytotoxicity against mouse L5178B1 cells transfected with pHa MDR1/A retrovirus assessed as reduction in cell viability after 72 hrs by MTT assay", "assay_type": "functional, cell-based", "conditions": "MDR1, 72 h"}, "NCI-H460 [3]": {"tested_on": "NCI-H460", "assay": "Cytotoxicity against human NCI-H460 cells assessed as reduction in cell viability after 72 hrs by MTT assay", "assay_type": "functional, cell-based", "conditions": "NCI-H460, 72 h"}, "[4]": {"assay": "Cytotoxicity against human NCI-H460/R cells transfected with MDR assessed as reduction in cell viability after 72 hrs by MTT assay", "assay_type": "functional, cell-based", "conditions": "NCI-H460, 72 h"}, "A549": {"tested_on": "A549", "assay": "Cytotoxicity against human A549 cells assessed as reduction in cell viability after 72 hrs by MTT assay", "assay_type": "functional, cell-based", "conditions": "A549, 72 h"}, "NCI-H661": {"tested_on": "NCI-H661", "assay": "Cytotoxicity against human NCI-H661 cells assessed as reduction in cell viability after 72 hrs by MTT assay", "assay_type": "functional, cell-based", "conditions": "NCI-H661, 72 h"}, "HaCaT [5]": {"tested_on": "HaCaT", "assay": "Cytotoxicity against human HaCaT cells assessed as reduction in cell viability after 72 hrs by MTT assay", "assay_type": "cell-based"}, "SiHa": {"tested_on": "SiHa", "assay": "Cytotoxicity against human SiHa cells assessed as reduction in cell viability after 72 hrs by MTT assay", "assay_type": "functional, cell-based"}, "NCI-H460 [6]": {"tested_on": "NCI-H460", "assay": "Induction of apoptosis in human NCI-H460 cells assessed as viable cells at 40 nM after 24 hrs by Annexin V/propidium iodide-staining based flow cytometry (reference value: 96.49 +/- 0.96%)", "assay_type": "functional", "conditions": "NCI-H460, 24 h, read-out: Activity"}, "[7]": {"assay": "Induction of apoptosis in human HaCaT cells assessed as viable cells at 40 nM after 24 hrs by Annexin V/propidium iodide-staining based flow cytometry (reference value: 95.63 +/- 3.83%)", "assay_type": "cell-based", "conditions": "read-out: Activity"}, "NCI-H460 [8]": {"tested_on": "NCI-H460", "assay": "Induction of apoptosis in human NCI-H460 cells assessed as early apoptotic cells at 40 nM after 24 hrs by Annexin V/propidium iodide-staining based flow cytometry (reference value: 0.45 +/- 0.01%)", "assay_type": "functional"}, "HaCaT [9]": {"tested_on": "HaCaT", "assay": "Induction of apoptosis in human HaCaT cells assessed as early apoptotic cells at 40 nM after 24 hrs by Annexin V/propidium iodide-staining based flow cytometry (reference value: 0.23 +/- 0.01%)", "assay_type": "cell-based", "conditions": "0.04 µM"}, "NCI-H460 [10]": {"tested_on": "NCI-H460", "assay": "Induction of apoptosis in human NCI-H460 cells assessed as late apoptotic cells at 40 nM after 24 hrs by Annexin V/propidium iodide-staining based flow cytometry (reference value: 0.93 +/- 0.04%)", "assay_type": "functional"}, "HaCaT [11]": {"tested_on": "HaCaT", "assay": "Induction of apoptosis in human HaCaT cells assessed as late apoptotic cells at 40 nM after 24 hrs by Annexin V/propidium iodide-staining based flow cytometry (reference value: 0.93 +/- 0.04%)", "assay_type": "cell-based", "conditions": "0.04 µM"}, "NCI-H460 [12]": {"tested_on": "NCI-H460", "assay": "Induction of apoptosis in human NCI-H460 cells assessed as necrotic cells at 40 nM after 24 hrs by Annexin V/propidium iodide-staining based flow cytometry (reference value: 2.13 +/- 0.02%)", "assay_type": "functional"}, "HaCaT [13]": {"tested_on": "HaCaT", "assay": "Induction of apoptosis in human HaCaT cells assessed as necrotic cells at 40 nM after 24 hrs by Annexin V/propidium iodide-staining based flow cytometry (reference value: 1.88 +/- 0.02%)", "assay_type": "cell-based", "conditions": "0.04 µM"}},
  "data": [
    {"molecule": "COc1cccc2c1C(=O)c1c(O)c3c(c(O)c1C2=O)C[C@@](O)(C(=O)CO)C[C@@H]3O[C@H]1C[C@H](N)[C@H](O)[C@H](C)O1", "note": "[DOXORUBICIN]", "values": [
      {"measurement": "IC50", "setting": "[1]", "result": 410, "unit": "nM"},
      {"measurement": "IC50", "setting": "[2]", "result": 11800, "unit": "nM"},
      {"measurement": "IC50", "setting": "NCI-H460 [3]", "result": 40, "unit": "nM"},
      {"measurement": "IC50", "setting": "[4]", "result": 1890, "unit": "nM"},
      {"measurement": "IC50", "setting": "A549", "result": 550, "unit": "nM"},
      {"measurement": "IC50", "setting": "NCI-H661", "result": 350, "unit": "nM"},
      {"measurement": "IC50", "setting": "HaCaT [5]", "result": 30, "unit": "nM"},
      {"measurement": "IC50", "setting": "SiHa", "result": 760, "unit": "nM"},
      {"measurement": "viability at 0.04 µM", "setting": "NCI-H460 [6]", "result": 85.1, "unit": "%"},
      {"measurement": "viability at 24 h, 0.04 µM", "setting": "[7]", "result": 78.1, "unit": "%"},
      {"measurement": "Activity", "setting": "NCI-H460 [8]", "result": 4.05, "unit": "%"},
      {"measurement": "Activity", "setting": "HaCaT [9]", "result": 11.03, "unit": "%"},
      {"measurement": "Activity", "setting": "NCI-H460 [10]", "result": 4.11, "unit": "%"},
      {"measurement": "Activity", "setting": "HaCaT [11]", "result": 3.04, "unit": "%"},
      {"measurement": "Activity", "setting": "NCI-H460 [12]", "result": 6.7, "unit": "%"},
      {"measurement": "Activity", "setting": "HaCaT [13]", "result": 7.82, "unit": "%"}
    ]}
  ]
}
